Results on eleven compounds are retold here after US5589477A, “Pyrimidine derivatives and drugs” (Nippon Shinyaku Company, Limited, priority 1990, dated 1996).

Counter-ions that a name gives are not always drawn.

For one data set, the target named is T1, muscarinic M1 receptors (Rattus norvegicus, UniProt P08482).
T1 construct: receptor membrane preparations from rat brain; from tissue; host or cells: rat brain membranes
T1 sequence (P08482 1-460): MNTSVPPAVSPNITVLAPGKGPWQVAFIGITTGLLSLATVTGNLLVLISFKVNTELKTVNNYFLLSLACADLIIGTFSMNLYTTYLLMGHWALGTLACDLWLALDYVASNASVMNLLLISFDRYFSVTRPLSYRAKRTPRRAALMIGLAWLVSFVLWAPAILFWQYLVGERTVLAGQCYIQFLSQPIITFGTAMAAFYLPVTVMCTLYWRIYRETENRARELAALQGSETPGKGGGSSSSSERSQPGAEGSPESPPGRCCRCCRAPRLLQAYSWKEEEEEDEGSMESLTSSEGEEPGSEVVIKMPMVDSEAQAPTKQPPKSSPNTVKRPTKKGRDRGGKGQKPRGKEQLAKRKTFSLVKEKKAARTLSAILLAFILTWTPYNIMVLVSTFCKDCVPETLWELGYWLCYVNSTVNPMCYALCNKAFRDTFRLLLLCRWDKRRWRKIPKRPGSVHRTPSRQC
In words: Binding assay for muscarinic M1 receptors ([^3 H]pirenzepine displacement, rat brain membranes). The note with it: 1 nM [^3 H]pirenzepine, pH 7.4, 25° C., 60 minutes. The procedure: (3) Effect on muscarinic M1 receptors
Binding assay for muscarinic M1 receptors was carried out according to the method of Watson and Yamamura [Life Sci. 3001-3011(1983)]. Namely, the receptor membrane preparations from rat brain were incubated with 1 nM [^3 H]pirenzepine in 10 mM Na/K phosphate buffer solution (pH 7.4) at 25° C. for 60 minutes. 1 μM of atropine was used as a displacer.
As usually defined, the IC50 is the concentration that gives 50% inhibition. A higher IC50 goes with a need for much substance. Take `Cc1cc(O[C@H]2CN3CCC2CC3)nc(-c2ccc(F)cc2)n1` [Example 27, (R)-(-)-4-(1-azabicyclo[2,2,2]octo-3-yloxy)-2-(4-fluorophenyl) 6-methylpyrimidine maleate]: the IC50 was 170 nM. On the same count and under the same terms, the result for `Cc1cc(O[C@H]2CN3CCC2CC3)nc(-c2ccc(Cl)cc2)n1` [Example 44, (R)-(-)-4-(1-azabicyclo[2,2,2]octo-3-yloxy)-2-(4-chlorophenyl) 6-methylpyrimidine maleate] reads 240 nM. On the same count and under the same terms, the result for `Cc1cc(O[C@H]2CN3CCC2CC3)nc(-c2ccc(O)cc2)n1` [Example 58, (R)-(-)-4-(1-azabicyclo[2,2,2]octo-3-yloxy)-2-(4-hydroxyphenyl) 6-methylpyrimidine maleate] reads 810 nM; that for `COc1ccc(-c2nc(O[C@H]3CN4CCC3CC4)cc(C(C)(C)C)n2)cc1` [Example 60, (R)-(-)-4-(1-azabicyclo[2,2,2]octo-3-yloxy)-6-tert-butyl-2-(4-methoxyphenyl)pyrimidine maleate], 3100 nM; that for `Fc1ccc(-c2nc(O[C@H]3CN4CCC3CC4)cc(C(F)(F)F)n2)cc1` [Example 63, (R)-(-)-4-(1-azabicyclo[2,2,2]octo-3-yloxy)-2-(4-fluorophenyl) 6-trifluoromethylpyrimidine maleate], 600 nM.

In a further data set the test system is mice. In words: Acute toxicity (mice, p.o.). It counts as in vivo. The note with it: 1000 mg/kg p.o., male mice, 72 hours. The procedure: Male mice, 6 weeks of age (4 mice/group) were deprived of foods overnight. Test drugs suspended in 0.5% methyl cellulose solution were administered orally to the mice. Whether the animals were dead or not was observed 72 hours after the treatment of the drugs.
For `COc1ccc(-c2nc(C)cc(OCCN3CCN(C(c4ccccc4)c4ccccc4)CC3)n2)cc1` [Example 3, 4-[2-(4-diphenylmethylpiperazino)ethoxy]-2-(4-methoxyphenyl)-6-methylpyrimidine], the “Lethality (Number of dead animals/Number of animals used)” value is 0/4.

On to `COc1ccc(-c2nc(C)cc(N3CCN(C(c4ccccc4)c4ccccc4)CC3)n2)cc1` [Example 4, 4-(4-diphenylmethylpiperazino)-2-(4-methoxyphenyl)-6-methylpyrimidine], for which the “Lethality (Number of dead animals/Number of animals used)” value is recorded as 0/4. Still for that read-out and setting: with `Cc1cc(OCCN2CCN(c3ccccc3)CC2)nc(-c2ccccc2)n1.O=C(O)/C=C\C(=O)O` [Example 11, 4-Methyl-2-phenyl-6-[2-(4-phenylpiperazino)ethoxy] pyrimidine maleate] the figure was 0/4. Still for that read-out and setting: the result for `Cc1cc(OCCN2CCN(C(c3ccccc3)c3ccccc3)CC2)nc(-c2ccccc2)n1` [Example 13, 4-[2-(4-diphenylmethylpiperazino)ethoxy]-6-methyl-2-phenylpyrimidine] reads 0/4.

With `COc1ccc(-c2nc(C)cc(OCCN3CCN(c4ccccc4)CC3)n2)cc1` [Example 21, 2-(4-methoxyphenyl)-4-methyl-6-[2-(4-phenylpiperazino)ethoxy]pyrimidine], the “Lethality (Number of dead animals/Number of animals used)” value is given as 0/4. On the same count and under the same terms, with `Cc1cc(N2CCN(C(c3ccccc3)c3ccccc3)CC2)nc(-c2ccccc2)n1` [Example 35, 4-(4-diphenylmethylpiperazino)-6-methyl-2-phenylpyrimidine] the figure was 0/4; with `Cc1cc(O[C@H]2CN3CCC2CC3)nc(-c2ccc(Cl)cc2)n1` [Example 44, (R)-(-)-4-(1-azabicyclo[2,2,2]octo-3-yloxy)-2-(4-chlorophenyl) 6-methylpyrimidine maleate], 0/4. The same measure, in the same setting: the result for `Cc1cc(O[C@H]2CN3CCC2CC3)nc(-c2ccc(O)cc2)n1` [Example 58, (R)-(-)-4-(1-azabicyclo[2,2,2]octo-3-yloxy)-2-(4-hydroxyphenyl) 6-methylpyrimidine maleate] reads 0/4.
